Assay results reported in patent US20100029710A1, “COMPOUNDS HAVING BOTH ANGIOTENSIN II RECEPTOR ANTAGONISM AND PPARy ACTIVATING ACTIVITIES” (Pfizer Products Inc., priority 2006, published 2010).

Assays:
[1] = biological target: T1, Human recombinant AT1 receptor (Homo sapiens, UniProt P30556); test: AT1 receptor radioligand binding (flashplate); conditions: 125I Sar1,Ile8-Angiotensin II radioligand
T1 construct: purchased
T1 sequence (P30556 1-359): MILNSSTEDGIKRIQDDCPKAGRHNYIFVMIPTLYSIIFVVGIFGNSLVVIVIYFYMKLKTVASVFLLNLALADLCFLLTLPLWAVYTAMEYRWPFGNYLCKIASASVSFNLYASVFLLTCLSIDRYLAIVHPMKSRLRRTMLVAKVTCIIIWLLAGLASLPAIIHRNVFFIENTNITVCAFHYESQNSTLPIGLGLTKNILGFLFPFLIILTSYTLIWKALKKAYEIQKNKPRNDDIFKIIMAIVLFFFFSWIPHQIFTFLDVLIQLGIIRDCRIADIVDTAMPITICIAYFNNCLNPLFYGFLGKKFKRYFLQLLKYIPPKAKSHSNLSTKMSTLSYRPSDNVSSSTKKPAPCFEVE
How it was run: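 Human recombinant AT1 receptor was coated on flashplates and competed against 125I-Sar1,Ile8-angiotensin II at its Kd concentration for 2 h at room temperature. Compounds were tested from […], with nonspecific binding defined by 10 μM angiotensin II. Ki was derived via Cheng-Prusoff.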

[2] = biological target: T2, human PPARγ LBD bound to Gal4 DBD (Homo sapiens, UniProt P37231); test: PPARγ transfection luciferase reporter assay in HepG2 cells; format: cell-based; conditions: for Emax: HepG2, 24 h, compared to full agonist response (standard TZD full agonist), read-out: PPARγ % activation; for EC50: HepG2, 24 hours exposure
T2 construct: expressed in transfected cells; host or cells: HepG2
T2 sequence (P37231 238-503 limits assumed): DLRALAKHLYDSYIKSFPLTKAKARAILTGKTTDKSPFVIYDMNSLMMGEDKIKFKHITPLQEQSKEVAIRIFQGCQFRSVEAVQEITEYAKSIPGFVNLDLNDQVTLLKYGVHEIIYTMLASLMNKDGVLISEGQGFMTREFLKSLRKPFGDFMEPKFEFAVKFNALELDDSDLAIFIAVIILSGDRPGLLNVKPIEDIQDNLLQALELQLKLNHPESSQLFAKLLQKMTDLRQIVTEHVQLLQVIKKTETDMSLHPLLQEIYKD
How it was run: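 HepG2 cells transiently co-transfected with Gal4 DBD–PPARγ LBD, luciferase reporter and β-galactosidase, then exposed 24 h to compound (0.1 nM–100 μM). Luciferase/β-gal ratio gives activation. EC50 is relative to each compound's own maximum; efficacy is % of a reference TZD full agonist.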

Compound | IC50 [1] [nM] | Emax [2] [%] | EC50 [2] [nM]
CCCc1nc2c(C)cc(CCC(C)(O)CC)nc2n1[C@H]1CCc2cc(-c3ccccc3-c3nnn[nH]3)ccc21 (stereo partly drawn) [Example 50, 1-(3-((1S)-5-(2-(1H-tetrazol-5-yl)phenyl)-2,3-dihydro-1H-inden-1-yl)-7-methyl-2-propyl-3H-imidazo[4,5-b]pyridin-5-yl)-3-methylpentan-3-ol] | 1.7 | 30 | 415
CCCc1nc2c(C)cc(CCC(C)(O)c3ccccc3)nc2n1[C@H]1CCc2cc(-c3ccccc3-c3nnn[nH]3)ccc21 (stereo partly drawn) [Example 51, 4-(3-((1S)-5-(2-(1H-tetrazol-5-yl)phenyl)-2,3-dihydro-1H-inden-1-yl)-7-methyl-2-propyl-3H-imidazo[4,5-b]pyridin-5-yl)-2-phenylbutan-2-ol] | 2.1 | 36 | 130
CCc1nc2c(C)cc(CCC3(O)CCCCC3)nc2n1[C@H]1CCc2cc(-c3ccccc3-c3nnn[nH]3)ccc21 [Example 52, 1-(2-(3-((1S)-5-(2-(1H-tetrazol-5-yl)phenyl)-2,3-dihydro-1H-inden-1-yl)-2-ethyl-7-methyl-3H-imidazo[4,5-b]pyridin-5-yl)ethyl)cyclohexanol] | 1.3 | 36 | 290
CCc1nc2c(C)cc(CCC(C)(C)O)nc2n1[C@H]1CCc2cc(-c3ccccc3-c3nnn[nH]3)ccc21 [Example 53, 4-(3-((1S)-5-(2-(1H-tetrazol-5-yl)phenyl)-2,3-dihydro-1H-inden-1-yl)-2-ethyl-7-methyl-3H-imidazo[4,5-b]pyridin-5-yl)-2-methylbutan-2-ol] | 1.4 | 30 | 215
CCc1nc2c(C)cc(CCC3(O)CCOC3)nc2n1[C@H]1CCc2cc(-c3ccccc3-c3nnn[nH]3)ccc21 (stereo partly drawn) [Example 54, 3-(2-(3-((1S)-5-(2-(1H-tetrazol-5-yl)phenyl)-2,3-dihydro-1H-inden-1-yl)-2-ethyl-7-methyl-3H-imidazo[4,5-b]pyridin-5-yl)ethyl)-tetrahydrofuran-3-ol] | 1 | 26 | 535
CCc1nc2c(C)cc(CC[C@@](C)(O)C(C)C)nc2n1[C@H]1CCc2cc(-c3ccccc3-c3nnn[nH]3)ccc21 [Example 55, (R)-1-(3-((1S)-5-(2-(1H-tetrazol-5-yl)phenyl)-2,3-dihydro-1H-inden-1-yl)-2-ethyl-7-methyl-3H-imidazo[4,5-b]pyridin-5-yl)-3,4-dimethylpentan-3-ol] | 2.4 | 38 | 150
CCc1nc2c(C)cc(CCC(O)(CC)CC)nc2n1[C@H]1CCc2cc(-c3ccccc3-c3nnn[nH]3)ccc21 [Example 56, 1-(3-((1S)-5-(2-(1H-tetrazol-5-yl)phenyl)-2,3-dihydro-1H-inden-1-yl)-2-ethyl-7-methyl-3H-imidazo[4,5-b]pyridin-5-yl)-3-ethylpentane-3-ol] | 2.5 | 31 | 110
CCc1nc2c(C)cc(CC[C@@H](O)C(C)C)nc2n1[C@H]1CCc2cc(-c3ccccc3-c3nnn[nH]3)ccc21 [Example 57, (R)-1-(3-((1S)-5-(2-(1H-tetrazol-5-yl)phenyl)-2,3-dihydro-1H-inden-1-yl)-2-ethyl-7-methyl-3H-imidazo[4,5-b]pyridin-5-yl)-4-methyl pentan-3-ol] | 2.5 | 28 | 285
CCc1nc2c(C)cc(CCC3CCCCC3)nc2n1[C@H]1CCc2cc(-c3ccccc3-c3nnn[nH]3)ccc21 [Example 58, 3-((1S)-5-(2-(1H-tetrazol-5-yl)phenyl)-2,3-dihydro-1H-inden-1-yl)-5-(2-cyclohexylethyl)-2-ethyl-7-methyl-3H-imidazo[4,5-b]pyridine] | 3.8 | 31 | 200

Other lines, results leading:

IC50 [1] [nM] | Emax [2] [%] | EC50 [2] [nM] | Compound
2.9 | 30 | 215 | CCc1nc2c(C)cc(CCC3CC3)nc2n1[C@H]1CCc2cc(-c3ccccc3-c3nnn[nH]3)ccc21 [Example 59, 3-((1S)-5-(2-(1H-tetrazol-5-yl)phenyl)-2,3-dihydro-1H-inden-1-yl)-5-(2-cyclopropylethyl)-2-ethyl-7-methyl-3H-imidazo[4,5-b]pyridine]
22 | 21 | 525 | CCc1nc2c(C)cc(C(=O)CC(C)C)nc2n1[C@H]1CCc2cc(-c3ccccc3-c3nnn[nH]3)ccc21 [Example 60, 1-(3-((1S)-5-(2-(1H-tetrazol-5-yl)phenyl)-2,3-dihydro-1H-inden-1-yl)-2-ethyl-7-methyl-3H-imidazo[4,5-b]pyridin-5-yl)-3-methylbutan-1-one]
5 | 21 | 410 | CCc1nc2c(C)cc(C(C)(O)C(C)C)nc2n1[C@H]1CCc2cc(-c3ccccc3-c3nnn[nH]3)ccc21 (stereo partly drawn) [Example 61, 2-(3-((1S)-5-(2-(1H-tetrazol-5-yl)phenyl)-2,3-dihydro-1H-inden-1-yl)-2-ethyl-7-methyl-3H-imidazo[4,5-b]pyridin-5-yl)-3-methylbutan-2-ol]
1.4 | 50 | 70 | CCc1nnc(Cc2cc(C)c3nc(CC)n([C@H]4CCc5cc(-c6ccccc6-c6nnn[nH]6)ccc54)c3n2)o1 [Example 62, 3-((1S)-5-(2-(1H-tetrazol-5-yl)phenyl)-2,3-dihydro-1H-inden-1-yl)-2-ethyl-5-((5-ethyl-1,3,4-oxadiazol-2-yl)methyl)-7-methyl-3H-imidazo[4,5-b]pyridine]
2.4 | 27 | 295 | CCc1nc2c(C)cc(CC3CCCCC3=O)nc2n1[C@H]1CCc2cc(-c3ccccc3-c3nnn[nH]3)ccc21 (stereo partly drawn) [Example 63, 2-((3-((1S)-5-(2-(1H-tetrazol-5-yl)phenyl)-2,3-dihydro-1H-inden-1-yl)-2-ethyl-7-methyl-3H-imidazo[4,5-b]pyridin-5-yl)methyl)cyclohexanone]
6 | 22 | 435 | CCc1nc2c(C)cc(Cn3nccn3)nc2n1[C@H]1CCc2cc(-c3ccccc3-c3nnn[nH]3)ccc21 [Example 66, 3-((1S)-5-(2-(1H-tetrazol-5-yl)phenyl)-2,3-dihydro-1H-inden-1-yl)-5-((2H-1,2,3-triazol-2-yl)methyl)-2-ethyl-7-methyl-3H-imidazo[4,5-b]pyridine]
5.1 | 23 | 110 | CCc1nc2c(C)cc(Cn3nc(C)cc3C)nc2n1[C@H]1CCc2cc(-c3ccccc3-c3nnn[nH]3)ccc21 [Example 67, 3-((1S)-5-(2-(1H-tetrazol-5-yl)phenyl)-2,3-dihydro-1H-inden-1-yl)-5-((3,5-dimethyl-1H-pyrazol-1-yl)methyl)-2-ethyl-7-methyl-3H-imidazo[4,5-b]pyridine]
6.5 | 34 | 45 | CCc1nc2c(C)cc(CCC(C)(O)C(C)(C)C)nc2n1[C@H]1CCc2cc(-c3ccccc3-c3nnn[nH]3)ccc21 (stereo partly drawn) [Example 68, 1-(3-((1S)-5-(2-(1H-tetrazol-5-yl)phenyl)-2,3-dihydro-1H-inden-1-yl)-2-ethyl-7-methyl-3H-imidazo[4,5-b]pyridin-5-yl)-3,4,4-trimethylpentan-3-ol]
4 | 36 | 30 | CCc1nc2c(C)cc(CCC(C)(O)CC(C)C)nc2n1[C@H]1CCc2cc(-c3ccccc3-c3nnn[nH]3)ccc21 (stereo partly drawn) [Example 69, 1-(3-((1S)-5-(2-(1H-tetrazol-5-yl)phenyl)-2,3-dihydro-1H-inden-1-yl)-2-ethyl-7-methyl-3H-imidazo[4,5-b]pyridin-5-yl)-3,5-dimethylhexan-3-ol]
